Assay results from patent US11058654B2, “Compositions and methods for the treatment of hemoglobinopathies and thalassemias” (AXCELLA HEALTH INC., priority 2018, dated 2021).

Test system: RBCs of healthy whole blood
Experiment: RBC deformability (LORRCA elongation index), ex vivo TBHP oxidation of healthy whole blood
Type: cell-based, human
Conditions: for EI over vehicle control, ½ EImax and EImax: healthy donor 2, single amino acid treatments, in words
Description: Whole blood from healthy African American and/or Hispanic donors was obtained from Research Blood Components, LLC based on the following donor selection criteria: Adult age (between 18 and 50 years), normal BMI (<30), and absence of other confounding clinical conditions. Whole blood from SCD donors were obtained from BioIVT based on the following donor selection criteria: Patients with genotypes HbSS, HbSC, HbS/β^0 and at least 1-2 months gap since last blood transfusion. Whole blood was shipped on ice on the same day as blood draw. Upon receipt, the blood sample was aliquoted and stored in the refrigerator until used for studies.
RBC deformability measurements were conducted with the Laser Optical Rotational Red Cell Analyzer (LORRCA) from RR Mechatronics in a temperature-controlled environment (37° C.). Briefly, an even layer of RBCs suspended in polyvinylpyrrolidone (PVP) is subjected to shear stress gradient (0.3 to 30 Pa) through two concentric cylinders and the resulting changes in RBC shape or deformability are measured by a laser beam diffraction pattern. The captured images of RBC shape in response to increasing shear stress are then analyzed by the LORRCA program to calculate Elongation Index (EI).
Healthy RBCs have higher deformability≥0.5 EI and SCD RBCs have lower deformability or EI values as studied by LORRCA ektacytometry in the field. […] The induced hemolysis model in this disclosure involves use of tert-butyl hydroperoxide (TBHP) to lower EI of RBCs.
The ex vivo hemolysis study disclosed here involves overnight treatment of whole blood with vehicle as a control and specific amino acids followed by rapid oxidation (5 min) with TBHP. Method for oxidation of whole blood with tert-butyl hydroperoxide has been used in prior literature (Diederich L, et al, Front Physiol. 2018 May 11; 9:332). RBC deformability or shape changes are then measured with LORRCA ektacytometry.
Whole blood aliquots stored in the fridge were brought up to room temperature while gently shaking on a rocker at low speed for an hour to ensure gradual and uniform suspension of red blood cells prior to deformability measurements. Vehicle control used in the study was 1× Dulbecco's […]) and amino acids disclosed herein were added (at either final […] or 2.5 mM concentration as indicated) to corresponding vehicle and amino acid treatment conditions. The samples were then incubated overnight at 37° C. Next day, 25 μL of whole blood was taken from each treatment condition and added to 5 mL Elon ISO viscous solution from RR Mechatronics. The sample was inverted 15-20 times to ensure proper mixing of the treated RBCs with the Elon ISO solution followed by loading the sample on LORRCA and capturing RBC deformability or shape measurements over the applied shear gradient. The remaining whole blood treatments were returned to incubator (37° C.) until deformability measurements were completed for all treatments. To the remaining whole blood treatment samples, TBHP solution (5.0-6.0 M in Decane, Sigma) was added at 2.5 mM final concentration from a 100 mM freshly prepared stock and incubated for further 5 min at 37° C. 25 μL of this TBHP-treated sample was immediately removed at the end of the 5 min incubation and added to the Elon ISO solution for RBC deformability measurement after oxidation. Included in the Tables 13-15 are EI measurements at ½ EImax shear stress 1.69 Pa and EImax shear stress 30 Pa from these studies and FIG. 1 captures EI measurements for all shear stress points for the indicated treatment conditions.

Row | Compound | EI over vehicle control, ½ EImax and EImax | effectiveness among all treatment groups (EI and fold change relative to vehicle) (healthy donor 2, in words)
1 | N=C(N)NCCC[C@H](N)C(=O)O [Arginine] | higher than the vehicle | 
2 | NC(=O)CC[C@H](N)C(=O)O [Glutamine] | higher than the vehicle | least effective
3 | CC(=O)N[C@@H](CS)C(=O)O [N-Acetyl Cysteine, N-acetylcysteine] | higher than the vehicle | 
